Source: paper PMC9782245, “Synthesis and Structural Optimization of 2,7,9-Trisubstituted purin-8-ones as FLT3-ITD Inhibitors” (International Journal of Molecular Sciences, 2022)

How the values were obtained:
STK16 = target: T1, STK16 (Homo sapiens, UniProt O75716); assay: Kinase selectivity panel at 1 µM (Eurofins), STK16; assay type: biochemical; settings: read-out: residual enzyme activity STK16
T1 construct: purchased Eurofins Discovery (France)
Protocol: (§1) Three representative compounds (14d, 14e, and 15a) were profiled in a 1 µM concentration against 30 kinases that were selected as known off-targets of approved CDK4/6 inhibitors. […] Additional sensitive kinases include STK16, EphA1, MEKK2, SRC, and MER (≤10% of residual enzyme activities), which are not targets of the structurally similar CDK4/6 inhibitor, trilaciclib. We also screened compound 15a, an analogue of 14d, bearing isopropyl at position 7 of the purine instead of the methyl group. This change rapidly diminished the potency against CDK4 (dropped to 90% of residual enzyme activity), but the preference for FLT3 remained (1st rank) (Figure 2).
(§2) CDK/cyclin complexes and FLT3 kinases were assayed as previously described. Protein kinase selectivity was evaluated at a single concentration (1 µM) by screening against 30 enzymes at Eurofins Discovery (France).

[1] = Stability studied on Caco-2 cells; assay type: in vitro ADME; settings: in comparison with trilaciclib
[2] = system: FLT3 signaling (FLT3 Y589/591, STAT5, ERK1/2) in MV4-11 cells; assay: Western blot of FLT3 and downstream signaling in MV4-11; assay type: cell-based, Human; settings: MV4-11, 1 h treatment
Protocol: Next, we investigated the compounds for their ability to inhibit FLT3 and its downstream signaling in the MV4-11 cell line.
Cell lysates were prepared, and then proteins were separated on SDS-polyacrylamide gels and electroblotted onto nitrocellulose membranes.

K562 cells = assay: Flow cytometric cell cycle analysis, K562; assay type: cell-based, Human; settings: 24 h
Protocol: (§3) FLT3 inhibition causes G1-cell cycle arrest in FLT3-dependent cell lines such as MV4-11; we, therefore, performed flow cytometric analysis to evaluate cell cycle changes in MV4-11 and K562 cell lines treated with 200 nM compounds for 24 h. […] Specifically, 18 compounds arrested >85% of cells in the G1 phase, which is >30% cells in the G1 phase of the cell cycle than in control cells (Figure 4A).
(§4) Finally, we performed flow cytometric analysis with different concentrations of 15a in MV4-11 and MOLM13 (another FLT-ITD positive cell line) and K562 cell lines treated for 24 h (Figure 5).
(§5) Asynchronously growing cells were seeded into a 96-well plate and, after a preincubation period, treated with tested compounds for 24 h. The treated cells were stained directly (or after trypsinization for the adherent cells) with the 5× staining solution (17 mM trisodium citrate dihydrate, 0.5% IGEPAL CA-630, 7.5 mM spermine tetrahydrochloride, and 2.5 mM Tris; pH 7.6 containing […] propidium iodide). After the staining, DNA content was analyzed using flow cytometry using a 488 nm laser (BD FACS Verse with software BD FACSuite^TM, version 1.0.6). Cell cycle distribution was analyzed using ModFit LT (Verity Software House, version 5.0). Palbociclib, trilaciclib, and quizartinib were purchased from MedChemExpress, Monmouth Junction, NJ, USA.

MV4-11 xenograft = assay: MV4-11 subcutaneous xenograft model in NSG mice; assay type: in vivo; settings: 20 mg/kg, daily i.p.
Description: Finally, we tested the in vivo activity of 15a in a model of AML based on subcutaneous xenotransplantation of MV4-11 cells in immunodeficient mice.
The experimental design was approved by the Institutional Animal Care and Use Committee (MSMT-37334/2020-4). Immunodeficient adult female NOD.Cg-Prkdc^scidIl2rg^tm1Wjl/SzJ mice (referred to as NSG mice) were purchased from The Jackson Laboratory and preserved in a pathogen-free environment in individually ventilated cages, provided with sterilized food and water. NSG mice were subcutaneously inoculated with 10 × 10^6 leukemia cells. […] Each cohort contained 6 animals. Three perpendicular dimensions (in millimeters) were measured daily with a digital caliper and tumor volumes were calculated using the following formula: π/6 × length × width × height. An experiment was terminated (and mice euthanized) when tumors exceeded 20 mm in the largest diameter.

Abl = target: T2, Abl (Homo sapiens, UniProt P00519); assay: Kinase selectivity panel at 1 µM (Eurofins), Abl; assay type: biochemical; settings: read-out: residual enzyme activity Abl
T2 construct: purchased Eurofins Discovery (France)
Protocol: as §1, §2

TTK = target: T3, TTK (Homo sapiens, UniProt P33981); assay: Kinase selectivity panel at 1 µM (Eurofins), TTK; assay type: biochemical; settings: read-out: residual enzyme activity TTK
T3 construct: purchased Eurofins Discovery (France)
T3 sequence (P33981 1-857): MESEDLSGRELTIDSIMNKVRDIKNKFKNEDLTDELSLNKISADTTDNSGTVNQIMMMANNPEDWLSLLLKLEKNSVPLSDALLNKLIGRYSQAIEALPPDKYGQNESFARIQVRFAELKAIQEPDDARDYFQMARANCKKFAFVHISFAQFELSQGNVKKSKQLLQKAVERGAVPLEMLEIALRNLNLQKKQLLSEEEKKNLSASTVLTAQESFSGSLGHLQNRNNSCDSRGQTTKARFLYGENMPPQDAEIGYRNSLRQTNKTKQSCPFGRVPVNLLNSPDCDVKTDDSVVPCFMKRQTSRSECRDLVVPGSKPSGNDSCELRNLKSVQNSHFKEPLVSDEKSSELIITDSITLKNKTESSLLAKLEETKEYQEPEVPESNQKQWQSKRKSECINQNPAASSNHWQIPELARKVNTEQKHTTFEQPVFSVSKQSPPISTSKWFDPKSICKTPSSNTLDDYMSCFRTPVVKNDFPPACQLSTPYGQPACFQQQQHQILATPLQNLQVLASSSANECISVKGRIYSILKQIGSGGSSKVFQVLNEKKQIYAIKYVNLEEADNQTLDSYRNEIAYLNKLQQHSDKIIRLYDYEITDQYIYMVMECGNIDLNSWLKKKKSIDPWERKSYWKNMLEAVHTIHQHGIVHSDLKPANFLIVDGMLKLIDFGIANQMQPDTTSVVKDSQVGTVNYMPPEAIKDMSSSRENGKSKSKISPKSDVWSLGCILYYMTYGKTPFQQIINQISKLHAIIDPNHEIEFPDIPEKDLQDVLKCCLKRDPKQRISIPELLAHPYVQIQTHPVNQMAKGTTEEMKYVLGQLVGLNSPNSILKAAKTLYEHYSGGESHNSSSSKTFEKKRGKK
Protocol: as §1, §2

MV4-11 cells = assay: Flow cytometric cell cycle analysis, MV4-11; assay type: cell-based, Human; settings: increasing doses, 24 h
Protocol: as §3, §4, §5

Lyn = target: T4, Lyn (Homo sapiens, UniProt P07948); assay: Kinase selectivity panel at 1 µM (Eurofins), Lyn; assay type: biochemical; settings: read-out: residual enzyme activity Lyn
T4 construct: purchased Eurofins Discovery (France)
Protocol: as §1, §2

T1 sequence (O75716 whole entry): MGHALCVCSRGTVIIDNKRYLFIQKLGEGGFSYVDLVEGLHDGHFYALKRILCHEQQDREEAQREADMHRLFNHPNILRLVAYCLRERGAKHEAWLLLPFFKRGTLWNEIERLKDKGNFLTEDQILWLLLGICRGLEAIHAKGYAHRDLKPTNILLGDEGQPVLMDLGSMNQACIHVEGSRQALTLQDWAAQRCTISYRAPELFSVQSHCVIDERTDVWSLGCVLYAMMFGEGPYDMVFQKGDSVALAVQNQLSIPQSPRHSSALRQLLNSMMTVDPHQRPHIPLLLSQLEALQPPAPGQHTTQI
T4 sequence (P07948 whole entry): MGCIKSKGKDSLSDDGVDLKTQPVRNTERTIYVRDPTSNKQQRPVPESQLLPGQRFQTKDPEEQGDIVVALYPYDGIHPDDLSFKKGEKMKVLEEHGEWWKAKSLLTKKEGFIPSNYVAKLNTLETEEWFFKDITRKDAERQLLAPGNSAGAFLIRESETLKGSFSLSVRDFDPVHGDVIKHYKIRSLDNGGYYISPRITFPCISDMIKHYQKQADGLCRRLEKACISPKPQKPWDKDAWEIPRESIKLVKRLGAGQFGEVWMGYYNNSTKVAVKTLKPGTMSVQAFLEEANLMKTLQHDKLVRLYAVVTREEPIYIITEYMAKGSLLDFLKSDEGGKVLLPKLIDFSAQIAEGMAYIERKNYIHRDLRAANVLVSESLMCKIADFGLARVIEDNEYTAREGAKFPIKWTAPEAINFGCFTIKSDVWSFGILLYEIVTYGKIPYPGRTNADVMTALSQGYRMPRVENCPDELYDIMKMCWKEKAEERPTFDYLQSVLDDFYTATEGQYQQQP
T2 sequence (P00519 whole entry): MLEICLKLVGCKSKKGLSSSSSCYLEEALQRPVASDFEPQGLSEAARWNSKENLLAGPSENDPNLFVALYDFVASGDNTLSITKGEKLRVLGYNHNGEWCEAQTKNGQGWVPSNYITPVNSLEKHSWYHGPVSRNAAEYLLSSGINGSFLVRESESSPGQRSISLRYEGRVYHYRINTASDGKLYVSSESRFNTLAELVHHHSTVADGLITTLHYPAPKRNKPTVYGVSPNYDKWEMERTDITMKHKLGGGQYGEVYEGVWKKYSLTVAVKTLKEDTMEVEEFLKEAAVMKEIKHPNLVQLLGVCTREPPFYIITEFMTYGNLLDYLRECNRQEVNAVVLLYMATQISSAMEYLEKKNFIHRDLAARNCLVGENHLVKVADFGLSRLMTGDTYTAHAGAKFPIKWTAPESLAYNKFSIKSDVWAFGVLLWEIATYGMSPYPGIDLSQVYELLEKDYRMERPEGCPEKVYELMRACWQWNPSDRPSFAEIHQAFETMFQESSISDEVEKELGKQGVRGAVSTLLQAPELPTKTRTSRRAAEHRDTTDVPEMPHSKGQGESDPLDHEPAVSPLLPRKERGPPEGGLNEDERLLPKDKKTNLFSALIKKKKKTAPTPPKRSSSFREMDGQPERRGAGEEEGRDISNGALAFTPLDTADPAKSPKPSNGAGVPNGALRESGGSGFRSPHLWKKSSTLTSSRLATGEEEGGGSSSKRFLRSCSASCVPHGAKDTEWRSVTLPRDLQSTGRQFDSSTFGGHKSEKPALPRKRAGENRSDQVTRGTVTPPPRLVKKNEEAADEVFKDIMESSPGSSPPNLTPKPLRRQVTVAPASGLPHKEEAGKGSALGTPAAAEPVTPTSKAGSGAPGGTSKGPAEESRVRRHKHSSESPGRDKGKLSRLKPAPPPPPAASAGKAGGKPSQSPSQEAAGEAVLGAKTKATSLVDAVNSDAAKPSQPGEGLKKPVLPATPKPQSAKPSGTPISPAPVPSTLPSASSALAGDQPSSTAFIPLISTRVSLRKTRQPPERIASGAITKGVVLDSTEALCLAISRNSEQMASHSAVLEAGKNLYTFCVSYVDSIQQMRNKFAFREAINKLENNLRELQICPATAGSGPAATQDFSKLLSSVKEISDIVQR

## Cn1c(=O)n(C2CCCC2)c2nc(Nc3ccc(N4CCNCC4)cc3)ncc21 [14d]
STK16
  remaining activity at 1 µM: ≤ 10%
other
  melting point: 110 to 112 °C

## Cn1c(=O)n(C2CCCCC2)c2nc(Nc3ccc(N4CCNCC4)cc3)ncc21 [14e]
STK16
  remaining activity at 1 µM: ≤ 10%
[1]
  stability (Caco-2 cells): substantially higher stability
[2]
  autophosphorylation of FLT3 kinase at Y589/591: inhibits autophosphorylation of FLT3 kinase at Y589/591
  phosphorylation of downstream proteins STAT5 and ERK1/2: diminishes the phosphorylation
K562 cells; 200 nM
  effect on cell cycle (G1 arrest) in K562: moderate G1 block

## CC(C)n1c(=O)n(C2CCCC2)c2nc(Nc3ccc(N4CCNCC4)cc3)ncc21 [15a, 9-cyclopentyl-7-isopropyl-2-((4-(piperazin-1-yl)phenyl)amino)-7,9-dihydro-8H-purin-8-one]
MV4-11 xenograft
  mice weight during therapy: no significant reduction in mice weight
MV4-11 xenograft; 7 days, vs vehicle
  growth of xenografted MV4-11 cells: significant reduction in the growth
Abl
  remaining activity at 1 µM: ≤ 10%
[2]
  concentration at which dephosphorylation of FLT3 was observed: 8 nM
  concentration giving nearly complete suppression of ERK1/2: 40 nM
TTK
  remaining activity at 1 µM: ≤ 10%
K562 cells; different concentrations
  cell cycle changes in K562: did not show any changes
MV4-11 cells
  cells in the G1 phase, MV4-11: up to 90%
Lyn
  remaining activity at 1 µM: ≤ 10%
